Source: patent US20230226062A1, “HETEROCYCLIC COMPOUNDS AS IMMUNOMODULATORS” (Incyte Corporation, priority 2016, published 2023)

Target: T1, PD-1/PD-L1 (Homo sapiens, UniProt Q9NZQ7)
T1 construct: Recombinant human PD-L1 protein (19-238) with a His-tag at the C-terminus; purchased AcroBiosystems PD1-H5229 (PD-L1); PD1-H5257 (PD-1)
Assay: PD-1/PD-L1 Homogeneous Time-Resolved Fluorescence (HTRF) binding assay
Conditions: recombinant human PD-L1 (19-238)-His 10 nM, human PD-1 (25-167)-Fc 3 nM, 25° C., PBS pH 7.4
Experimental: Example A. PD-1/PD-L1 Homogeneous Time-Resolved Fluorescence (HTRF) Binding Assay
The assays were conducted in a standard black 384-well polystyrene plate with a final volume of 20 μL. Inhibitors were first serially diluted in DMSO and then added to the plate wells before the addition of other reaction components. The final concentration of DMSO in the assay was 1%. The assays were carried out at 25° C. in the PBS buffer (pH 7.4) with 0.05% Tween-20 and 0.1% BSA. Recombinant human PD-L1 protein (19-238) with a His-tag at the C-terminus was purchased from AcroBiosystems (PD1-H5229). Recombinant human PD-1 protein (25-167) with Fc tag at the C-terminus was also purchased from AcroBiosystems (PD1-H5257). PD-L1 and PD-1 proteins were diluted in the assay buffer and 10 μL was added to the plate well. Plates were centrifuged and proteins were preincubated with inhibitors for 40 minutes. The incubation was followed by the addition of 10 μL of HTRF detection buffer supplemented with Europium cryptate-labeled anti-human IgG (PerkinElmer-AD0212) specific for Fc and anti-His antibody conjugated to SureLight®-Allophycocyanin (APC, PerkinElmer-AD0059H). After centrifugation, the plate was incubated at 25° C. for 60 min. before reading on a PHERAstar FS plate reader (665 nm/620 nm ratio). Final concentrations in the assay were—3 nM PD1, 10 nM PD-L1, 1 nM europium anti-human IgG and 20 nM anti-His-Allophycocyanin. IC50 determination was performed by fitting the curve of percent control activity versus the log of the inhibitor concentration using the GraphPad Prism 5.0 software.

T1 sequence (Q9NZQ7 19-238): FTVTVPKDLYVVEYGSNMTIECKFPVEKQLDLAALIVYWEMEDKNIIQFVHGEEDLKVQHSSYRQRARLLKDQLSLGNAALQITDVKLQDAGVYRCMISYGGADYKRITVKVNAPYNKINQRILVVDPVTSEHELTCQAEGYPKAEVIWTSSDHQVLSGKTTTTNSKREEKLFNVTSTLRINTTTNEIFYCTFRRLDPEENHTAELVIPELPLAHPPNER

IC50 [nM]	Compound
100 to 1000	COc1cccc(-c2cccc(Nc3ncccc3C(=O)NCCNCCO)c2C)c1F [Example 39, 2-(2′-fluoro-3′-methoxy-2-methylbiphenyl-3-ylamino)-N-(2-(2-hydroxyethylamino)ethyl)nicotinamide]
100 to 1000	OCCNCc1ccc(CN2CCc3c(-c4ccccc4)cccc32)c(Cl)c1 [Example 40, 2-({3-chloro-4-[(4-phenyl-2,3-dihydro-1H-indol-1-yl)methyl]benzyl}amino)ethanol]
